Test results: US7033772B1, “Methods of identifying inhibitors of fatty acid transport proteins (FATP)” (Millennium Pharmaceuticals, Inc., priority 1998, dated 2006)
Like-named read-outs stand apart in the source and are kept apart here. Values belong to the compound of their own block, whether it stands above or below them.

Experiments:
FATP4 mRNA = test: Oleate uptake by isolated mouse enterocytes after incubation with FATP4 oligonucleotides; assay type: cell-based; details: 100 μM oligonucleotide; for Inhibition of fatty acid (oleate) uptake over time: 48 h, 25 μM oleate, FIG. 40
FATP4 = molecular target: T1, FATP4 (Homo sapiens, UniProt Q6P1M0); test: Competition of Bodipy-FA uptake by FATP4 expressing cells (FACS); assay type: cell-based; details: for inhibition at 100 µM: read-out: Competition (inhibition of Bodipy-FA uptake)
T1 construct: expressed in transfected cells; host or cells: 293 cells (human kidney), stably transfected with pIRES-neo-hsFATP4, G418-selected
T1 sequence (Q6P1M0 whole entry): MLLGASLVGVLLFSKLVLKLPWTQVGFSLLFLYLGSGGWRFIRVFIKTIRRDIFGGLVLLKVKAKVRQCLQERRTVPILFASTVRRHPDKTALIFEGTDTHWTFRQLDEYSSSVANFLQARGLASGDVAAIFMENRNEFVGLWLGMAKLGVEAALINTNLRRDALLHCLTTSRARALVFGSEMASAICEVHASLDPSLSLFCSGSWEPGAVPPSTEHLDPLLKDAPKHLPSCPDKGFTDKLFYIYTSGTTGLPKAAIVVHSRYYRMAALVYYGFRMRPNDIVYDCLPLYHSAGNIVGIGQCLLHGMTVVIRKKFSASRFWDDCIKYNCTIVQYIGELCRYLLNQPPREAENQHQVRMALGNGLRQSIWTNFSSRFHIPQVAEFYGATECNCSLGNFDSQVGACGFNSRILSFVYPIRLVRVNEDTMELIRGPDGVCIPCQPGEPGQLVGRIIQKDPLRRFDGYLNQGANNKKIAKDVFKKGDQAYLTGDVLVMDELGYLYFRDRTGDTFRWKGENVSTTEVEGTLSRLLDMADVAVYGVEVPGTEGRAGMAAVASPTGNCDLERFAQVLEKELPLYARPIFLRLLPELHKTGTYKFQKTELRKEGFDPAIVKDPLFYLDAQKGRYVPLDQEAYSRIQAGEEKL
Protocol: Bodipy-FA uptake assays using FACS were performed, adapted to a 96-well format. LCFA uptake assays with enterocytes or with stably transfected 293 cells were done as follows. Mixed micelles of radiolabeled FA (NEN) and taurocholate (Sigma) in HBS were generated by brief sonication at 37° C. […] Final taurocholate concentration was 5 mM. Cells were incubated for the indicated amount of time at 37° C. The assay was stopped by transferring the cells onto filter paper followed by extensive washes with ice-cold HBS containing 0.1% BSA using a cell harvester (Brandell). Incorporated oleate was then determined by β-scintillation counting (Beckman).

enterocytes [1] = test: 35S-methionine uptake by cultured enterocytes after oligonucleotide treatment (specificity control); assay type: cell-based, mouse; details: 100 μM oligonucleotide, 48 h; FIG. 42
Protocol: As a further control experiment, the uptake of oleate was measured along with the uptake of methionine in the same cultured enterocytes. Antisense oligonucleotide, mismatch sequence oligonucleotide, or no oligonucleotide was added to a concentration of 100 μM to cultures of enterocytes. After incubation for 48 hours, the uptake of both ^3H-labeled oleate and ^35S-labeled methionine was assayed. Fatty acid uptake is at the left side of the paired bars; methionine uptake is on the right side of the paired bars.

293 cells = test: Uptake of radiolabeled substrates by control (vector) 293 cells; assay type: cell-based, human; details: 10 μM substrate in HBS with 5 mM taurocholate; rate over 4 min
Protocol: (§1) Several of the cell lines with the highest amount of Bodipy-FA uptake as well as isolated primary enterocytes were used to measure the uptake of radiolabeled FAs.
(§2) Bodipy-FA uptake assays using FACS were performed, adapted to a 96-well format. LCFA uptake assays with enterocytes or with stably transfected 293 cells were done as follows. Mixed micelles of radiolabeled FA (NEN) and taurocholate (Sigma) in HBS were generated by brief sonication at 37° C. Equal volumes of cells and micelle solution were mixed, resulting in a final FA concentration of 25 μM for antisense assays and 10 μM for substrate specificity assays. Final taurocholate concentration was 5 mM. Cells were incubated for the indicated amount of time at 37° C. The assay was stopped by transferring the cells onto filter paper followed by extensive washes with ice-cold HBS containing 0.1% BSA using a cell harvester (Brandell). Incorporated oleate was then determined by β-scintillation counting (Beckman).

hsFATP4 = molecular target: T2, hsFATP4 (Homo sapiens, UniProt Q6P1M0); test: Uptake of radiolabeled substrates by 293 cells stably expressing FATP4; assay type: cell-based; details: for Uptake, 293 Cells Stably Expressing FATP4: 10 μM substrate in HBS with 5 mM taurocholate, rate over 4 min; for Uptake, FATP4 specific: FATP4-expressing minus control 293 cells, 10 μM substrate, 5 mM taurocholate; for Effect of hsFATP4 expression on uptake of the substrate (in words): stably transfected 293 cells vs vector
T2 construct: expressed in transfected cells; host or cells: 293 cells (human kidney), stably transfected with pIRES-neo-hsFATP4, G418-selected
T2 sequence (Q6P1M0 whole entry): as above
Protocol: Using a mammalian expression vector, we generated 40 stable […] cell lines expressing hsFATP4 and 20 cell lines transfected with a control plasmid.
as §1, §2

enterocytes [2] = test: Uptake of radiolabeled substrates by isolated primary enterocytes; assay type: cell-based, mouse; details: for Uptake, Enterocytes: 10 μM substrate in HBS with 5 mM taurocholate, rate over 4 min; for Transport of the substrate by isolated primary enterocytes (in words): compared with transfected 293 cells
Protocol: as §1, §2

[3] = 5 μM Bodipy-FA, 100 μM competitor (20-fold molar excess), 100% = effect of 200 μM lauric acid

Compound: FATP4-S2: Sense control oligo GGAGCCTCTCTGGTGGGGG (SEQ ID NO:105) (chemistry not given here)
- Inhibition of fatty acid (oleate) uptake over time (FATP4 mRNA): did not significantly influence the uptake

- inhibition at 100 µM (FATP4; [3]): 0 to 30%
Compound: CCCCCCCC/C=C\CCCCCCCC(=O)SCCNC(=O)CCNC(=O)[C@H](O)C(C)(C)COP(=O)(O)OP(=O)(O)OC[C@H]1O[C@@H](n2cnc3c(N)ncnc32)[C@H](O)[C@@H]1OP(=O)(O)O [Oleoyl CoA]

Compound: CCCCCC(=O)O [Caproic Acid]
- inhibition at 100 µM (FATP4): 0 to 30%

Compound: CCCCCCCCCCCCCCCCCCCCCCCC(=O)O [Lignoceric Acid]
- inhibition at 100 µM (FATP4): 70 to 100%

Compound: FATP4-AS2: Antisense oligo CCCCCACCAGAGAGGCTCC (SEQ ID NO:103), complementary to nucleotides 10 to 28 of the mouse FATP4 coding sequence (chemistry not given here)
- Inhibition of fatty acid (oleate) uptake over time (FATP4 mRNA): ~50%
- Inhibition of oleate uptake over a 5 minute interval (FATP4 mRNA; 48 h incubation, FIG. 41): ~50%
- Methionine (amino acid) uptake (enterocytes [1]): not influenced

Compound: CCCCCCCCCCCCCC(=O)O [Myristic Acid]
- inhibition at 100 µM (FATP4): 70 to 100%

Compound: CCCCCCCC(=O)O [Octanoate, Caprylic Acid]
- Uptake, 293 Cells Control (293 cells): 0 pmol/min 10^6 cells
- inhibition at 100 µM (FATP4): 0 to 30%
- Uptake, 293 Cells Stably Expressing FATP4 (hsFATP4): 0 pmol/min 10^6 cells
- Uptake, FATP4 specific (hsFATP4): 0 pmol/min 10^6 cells
- Effect of hsFATP4 expression on uptake of the substrate (in words) (hsFATP4): not
- Uptake, Enterocytes (enterocytes [2]): 5 pmol/min 10^6 cells
- Transport of the substrate by isolated primary enterocytes (in words) (enterocytes [2]): absence of transport

- inhibition at 100 µM (FATP4; [3]): 0 to 30%
Compound: CCCCCCCC/C=C\CCCCCCCC(=O)OCC [Oleic Acid Ethyl Ester]

- inhibition at 100 µM (FATP4; [3]): 50 to 70%
Compound: CCCCCCCCCCCCCCCCCC(=O)O [Stearic Acid]

Compound: CCCCCCCC/C=C\CCCCCCCCOC(=O)CCCCCCC/C=C\CCCCCCCC [Oleic Acid Oley Ester]
- Competition (inhibition of Bodipy-FA uptake) (FATP4; [3]): − (0%-30% inhibition by the indicated substance)

Compound: Ergocalciferol [Ergocalciferol (Vitamin D2)]
- Competition (inhibition of Bodipy-FA uptake) (FATP4; [3]): − (0%-30% inhibition by the indicated substance)

Compound: CCCC(=O)O [Butyrate, Butyric Acid]
- Uptake, 293 Cells Control (293 cells): 0 pmol/min 10^6 cells
- Uptake, Enterocytes (enterocytes [2]): 73 pmol/min 10^6 cells
- Transport of the substrate by isolated primary enterocytes (in words) (enterocytes [2]): absence of transport

Compound: CCCCC/C=C\C/C=C\C/C=C\C/C=C\CCCC(=O)O [Arachidonate]
- Uptake, 293 Cells Control (293 cells): 3 pmol/min 10^6 cells
- Uptake, Enterocytes (enterocytes [2]): 0 pmol/min 10^6 cells

Compound: CC1=C(C/C=C(\C)CCC[C@H](C)CCC[C@H](C)CCCC(C)C)C(=O)c2ccccc2C1=O [3-Phytylamenadione (Vitamin K1), 3-Phytylamenadione]
- Competition (inhibition of Bodipy-FA uptake) (FATP4; [3]): − (0%-30% inhibition by the indicated substance)

- Uptake, 293 Cells Stably Expressing FATP4 (hsFATP4): 345 pmol/min 10^6 cells
- Uptake, FATP4 specific (hsFATP4): 26 pmol/min 10^6 cells
- Effect of hsFATP4 expression on uptake of the substrate (in words) (hsFATP4): not
Compound: CC(C)CCC[C@@H](C)[C@H]1CC[C@H]2[C@@H]3CC=C4C[C@@H](O)CC[C@]4(C)[C@H]3CC[C@]12C [Cholesterol]
- Uptake, 293 Cells Control (293 cells): 319 pmol/min 10^6 cells
- Uptake, Enterocytes (enterocytes [2]): 531 pmol/min 10^6 cells
- Transport of the substrate by isolated primary enterocytes (in words) (enterocytes [2]): more robust transport

Compound: CCCCCCCC/C=C\CCCCCCCC(=O)O [Oleate, Oleic Acid]
- Uptake, 293 Cells Control (293 cells): 662 pmol/min 10^6 cells
- Competition (inhibition of Bodipy-FA uptake) (FATP4; [3]): ++ (70%-100% inhibition)
- Uptake, 293 Cells Stably Expressing FATP4 (hsFATP4): 1122 pmol/min 10^6 cells
- Uptake, FATP4 specific (hsFATP4): 459 pmol/min 10^6 cells
- Effect of hsFATP4 expression on uptake of the substrate (in words) (hsFATP4): accelerated the uptake
- Uptake, Enterocytes (enterocytes [2]): 117 pmol/min 10^6 cells
- Transport of the substrate by isolated primary enterocytes (in words) (enterocytes [2]): preference

- inhibition at 100 µM (FATP4; [3]): 70 to 100%
- Uptake, 293 Cells Stably Expressing FATP4 (hsFATP4): 1695 pmol/min 10^6 cells
- Uptake, FATP4 specific (hsFATP4): 1131 pmol/min 10^6 cells
- Enhancement of rate of uptake by hsFATP4 expression over 293 cells transfected with vector alone (hsFATP4; stably transfected 293 cells, FIG. 97): approximately 3 fold
Compound: CCCCCCCCCCCCCCCC(=O)O [Palmitate, Palmitic Acid]
- Uptake, 293 Cells Control (293 cells): 564 pmol/min 10^6 cells
- Uptake, Enterocytes (enterocytes [2]): 3036 pmol/min 10^6 cells
- Transport of the substrate by isolated primary enterocytes (in words) (enterocytes [2]): preference

Compound: CCCCCCCCCCCCCCCCCC(=O)OC [Stearic Acid Methyl Ester]
- inhibition at 100 µM (FATP4): 0 to 30%

Compound: CCCCC[C@H](O)/C=C/[C@H]1[C@H](O)CC(=O)[C@@H]1C/C=C\CCCC(=O)O [Prostaglandin E2]
- Competition (inhibition of Bodipy-FA uptake) (FATP4; [3]): − (0%-30% inhibition by the indicated substance)

- inhibition at 100 µM (FATP4; [3]): 0 to 30%
Compound: CCCCCCCCCCCCCCCC(=O)OC [Palmitic Acid Methyl Ester]

- inhibition at 100 µM (FATP4; [3]): 70 to 100%
Compound: CCCCCCCCCC(=O)O [Capric Acid]

- inhibition at 100 µM (FATP4; [3]): 30 to 50%
Compound: CC1=C(/C=C/C(C)=C/C=C/C(C)=C/C(=O)O)C(C)(C)CCC1 [Retinoic Acid (Pro-Vitamin A), Retinoic Acid]

- inhibition at 100 µM (FATP4; [3]): 70 to 100%
Compound: CCCCCCCCCCCCCCCCCCCCCCCCCC(=O)O [Cerotic Acid]

- inhibition at 100 µM (FATP4; [3]): 70 to 100%
Compound: CCCCCCCCCCCCCCCCCCCC(=O)O [Arachidic Acid]

Compound: CCCCCCCC/C=C\CCCCCCCC(=O)O[C@H]1CC[C@@]2(C)C(=CC[C@H]3[C@@H]4CC[C@H]([C@H](C)CCCC(C)C)[C@@]4(C)CC[C@@H]32)C1 [Cholesteryl Oleate]
- Competition (inhibition of Bodipy-FA uptake) (FATP4; [3]): − (0%-30% inhibition by the indicated substance)

- inhibition at 100 µM (FATP4; [3]): 70 to 100%
- Uptake, 293 Cells Stably Expressing FATP4 (hsFATP4): 673 pmol/min 10^6 cells
- Uptake, FATP4 specific (hsFATP4): 33 pmol/min 10^6 cells
- Effect of hsFATP4 expression on uptake of the substrate (in words) (hsFATP4): not
Compound: CCCCC/C=C\C/C=C\CCCCCCCC(=O)O [Linolate, Linoleic Acid]
- Uptake, 293 Cells Control (293 cells): 640 pmol/min 10^6 cells
- Uptake, Enterocytes (enterocytes [2]): 116 pmol/min 10^6 cells
- Transport of the substrate by isolated primary enterocytes (in words) (enterocytes [2]): more robust transport

Compound: Tocopherol [Tocopherol (Vitamin E)]
- Competition (inhibition of Bodipy-FA uptake) (FATP4; [3]): − (0%-30% inhibition by the indicated substance)
